Source: patent US10570412B2, “Method of increasing resistance against soybean rust in transgenic plants by increasing the scopoletin content” (BASF PLANT SCIENCE COMPANY GMBH, priority 2015, dated 2020)
“Also recorded” adds a separate entry of the source.

What was measured:
Phakopsora pachyrhizi [1] = assay: In vitro germination test of Phakopsora pachyrhizi spores on glass slides; assay type: cell-based; conditions: 6 h
soybean = assay: Phytotoxic effect of scopoletin in soybean; conditions: soybean plants treated with scopoletin
Arabidopsis = assay: Phytotoxic effect of scopoletin in Arabidopsis; assay type: in vivo; conditions: Arabidopsis plants treated with 1 mM scopoletin
Procedure: For pre-treatment experiments Arabidopsis plants were sprayed with—1 mM scopoletin (solved in H2O, 0.01% Tween-20); incubated for 6 h at short day conditions and subsequently inoculated with 1 mg/ml P. pachyrhizi uredospores. For co-treatment experiments spores of Phakopsora pachyrhizi were solved in 0.01% Tween-20 supplemented with 1 mM scopoletin. Following inoculation plants were covered with moistened plastic domes to ensure high humidity and incubated at short day conditions (see above). 24 h later plastic domes were removed and plants incubated at the same conditions for another 24 h. Leaves were harvested 2 dpi and destained on tissue soaked with a saturated (2.5 g/ml) chloralhydrate solution. Germination and penetration on destained leaves was determined by quantitative microscopic analysis.

Phakopsora pachyrhizi [2] = assay: Soybean rust diseased leaf area on scopoletin-treated soybean plants; assay type: in vivo, Phakopsora pachyrhizi on soybean
Fusarium graminearum = assay type: cell-based; conditions: 1 mM scopoletin in PDA, compared with PDA+methanol
Phakopsora pachyrhizi [3] = assay: In vivo spore germination test on Arabidopsis leaves; design: species or system Phakopsora pachyrhizi on Arabidopsis thaliana; conditions: 1 mM scopoletin, assessed 48 h after infection

COc1cc2ccc(=O)oc2cc1O [scopoletin]
germination and appressorium formation of Phakopsora pachyrhizi spores (Phakopsora pachyrhizi [1]; 10 μM, 100 μM, 500 μM and 1 mM scopoletin in water, glass slides, dose dependent): decreases the germination and appressoria formation in a dose dependent manner; also recorded: strongly inhibited | spore germination in-vitro (Phakopsora pachyrhizi [1]; 1 mM scopoletin): completely abolishes spore germination | phytotoxic effect leading to pleiotropic effects (soybean): never observed | phytotoxic effect leading to pleiotropic effects (Arabidopsis): never observed any phytotoxic effect | diseased leaf area caused by Phakopsora pachyrhizi infection (Phakopsora pachyrhizi [2]; soy plants, 1 mM scopoletin, co-application, primary, first and second trifoliate leaves, 12 dpi): drastically reduced formation of infected leaf area; also recorded: strongly reduced | diseased leaf area caused by Phakopsora pachyrhizi infection (Phakopsora pachyrhizi [2]; soy plants, 1 mM scopoletin, pre-treatment 6 h before inoculation, primary, first and second trifoliate leaves, 12 dpi): drastically reduced formation of infected leaf area; also recorded: strongly reduced | diseased leaf area caused by Phakopsora pachyrhizi infection (Phakopsora pachyrhizi [2]; soybean leaves, co-application of 10 μM, 100 μM or 1 mM scopoletin, dose dependent): strongly reduced in a dose dependent manner | reduction of the Fusarium graminearum growth rate per day (Fusarium graminearum): 61% | germination of Phakopsora pachyrhizi spores on Arabidopsis leaves (Phakopsora pachyrhizi [3]; co-application with inoculation): drastically reduced formation of germinated spores | germination of Phakopsora pachyrhizi spores on Arabidopsis leaves (Phakopsora pachyrhizi [3]; co-application with inoculation, listed as Scopoletin): strongly inhibited | germination of Phakopsora pachyrhizi spores on Arabidopsis leaves (Phakopsora pachyrhizi [3]; pre-treatment 6 h before inoculation): drastically reduced formation of germinated spores | germination of Phakopsora pachyrhizi spores on Arabidopsis leaves (Phakopsora pachyrhizi [3]; pre-treatment 6 h before inoculation, listed as Scopoletin): strongly inhibited
